Source: patent publication US12235275B2, “Fluorescent substrates for poly(ADP-ribosyl) hydrolases” (The Board of Trustees of the University of Illinois, priority 2018, dated 2025)

Tests used:
PARG [1] = molecular target: T1, PARG (Homo sapiens, UniProt Q86W56); test: In vitro inhibition of PARG; assay type: biochemical; design: H. sapiens full length PARG; trigger factor (TF) fusion of the pColdTF vector; made in house; host or cells: Rosetta2 (DE3) E. coli; details: dose-response, FIG. 4C
ARH3 [2] = molecular target: T2, ARH3 (Homo sapiens, UniProt Q9NX46); test: In vitro inhibition of purified ARH3; assay type: biochemical; design: H. sapiens full length ARH3; His6 (N); made in house; host or cells: Rosetta2 (DE3) E. coli; details: mixture of anomers
T2 sequence (Q9NX46 1-363): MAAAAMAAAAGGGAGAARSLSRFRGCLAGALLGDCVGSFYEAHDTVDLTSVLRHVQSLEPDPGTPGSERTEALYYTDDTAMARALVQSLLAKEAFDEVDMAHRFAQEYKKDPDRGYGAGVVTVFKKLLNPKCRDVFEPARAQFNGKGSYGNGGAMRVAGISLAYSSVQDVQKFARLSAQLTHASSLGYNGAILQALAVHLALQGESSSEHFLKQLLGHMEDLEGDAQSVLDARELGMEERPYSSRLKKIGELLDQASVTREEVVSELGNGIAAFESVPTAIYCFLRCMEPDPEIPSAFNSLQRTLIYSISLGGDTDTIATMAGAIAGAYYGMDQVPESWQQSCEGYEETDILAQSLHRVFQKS

[3] = molecular target: T3, H. sapiens full length PARG (Homo sapiens, UniProt Q86W56); test: In vitro enzyme kinetics of substrate hydrolysis; assay type: biochemical; details: hPARG
T3 construct: H. sapiens full length PARG; trigger factor (TF) fusion of the pColdTF vector; made in house; host or cells: Rosetta2 (DE3) E. coli
T3 sequence (Q86W56 whole entry, the tested form may be a part): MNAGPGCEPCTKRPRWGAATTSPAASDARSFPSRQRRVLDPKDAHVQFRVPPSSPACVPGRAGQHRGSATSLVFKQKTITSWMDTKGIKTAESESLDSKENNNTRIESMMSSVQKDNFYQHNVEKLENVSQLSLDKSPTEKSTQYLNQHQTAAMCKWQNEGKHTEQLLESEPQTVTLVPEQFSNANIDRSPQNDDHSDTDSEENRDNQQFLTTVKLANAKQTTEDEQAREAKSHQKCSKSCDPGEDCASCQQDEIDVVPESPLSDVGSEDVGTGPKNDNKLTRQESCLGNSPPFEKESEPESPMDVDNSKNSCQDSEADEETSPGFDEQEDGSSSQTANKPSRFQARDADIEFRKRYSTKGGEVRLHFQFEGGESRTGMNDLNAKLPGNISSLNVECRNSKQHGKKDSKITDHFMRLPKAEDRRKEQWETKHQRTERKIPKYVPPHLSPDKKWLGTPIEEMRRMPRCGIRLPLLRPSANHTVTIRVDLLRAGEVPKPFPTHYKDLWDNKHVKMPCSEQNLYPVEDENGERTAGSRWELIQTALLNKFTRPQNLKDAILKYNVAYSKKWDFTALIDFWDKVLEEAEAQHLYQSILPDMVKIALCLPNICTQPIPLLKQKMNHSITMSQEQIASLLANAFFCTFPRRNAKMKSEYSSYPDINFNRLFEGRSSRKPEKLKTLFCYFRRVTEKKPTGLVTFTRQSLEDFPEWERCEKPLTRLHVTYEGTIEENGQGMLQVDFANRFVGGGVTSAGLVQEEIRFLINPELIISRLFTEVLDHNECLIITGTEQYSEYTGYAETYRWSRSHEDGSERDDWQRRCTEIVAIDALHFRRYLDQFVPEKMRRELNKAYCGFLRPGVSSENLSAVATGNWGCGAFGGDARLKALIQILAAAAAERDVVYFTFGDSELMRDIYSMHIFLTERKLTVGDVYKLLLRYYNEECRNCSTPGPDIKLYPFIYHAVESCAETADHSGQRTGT

T. thermophila PARG = molecular target: T4, T. thermophila PARG (Tetrahymena thermophila, UniProt I6L8L7); assay type: biochemical; details: ttPARG
T4 construct: made in house; host or cells: Rosetta2 (DE3) E. coli
T4 sequence (I6L8L7 1-457): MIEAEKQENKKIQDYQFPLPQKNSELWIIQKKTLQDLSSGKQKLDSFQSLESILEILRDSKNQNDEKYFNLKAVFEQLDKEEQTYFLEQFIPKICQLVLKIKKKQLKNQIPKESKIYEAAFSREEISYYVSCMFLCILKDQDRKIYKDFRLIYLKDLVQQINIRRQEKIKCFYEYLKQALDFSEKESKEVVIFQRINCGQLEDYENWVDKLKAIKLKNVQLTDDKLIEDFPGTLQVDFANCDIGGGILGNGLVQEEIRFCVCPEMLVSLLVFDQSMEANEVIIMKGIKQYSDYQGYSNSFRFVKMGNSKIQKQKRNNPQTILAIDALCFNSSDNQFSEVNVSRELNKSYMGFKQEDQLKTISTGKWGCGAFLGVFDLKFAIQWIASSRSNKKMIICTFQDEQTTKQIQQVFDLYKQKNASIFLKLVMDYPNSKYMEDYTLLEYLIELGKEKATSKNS

ARH3 [4] = test: Substrate hydrolysis in lysate of ARH3 knockout U2OS cells; assay type: biochemical; details: U2OS cell lysate, 200 μM substrate
Protocol: (§1) The ability of TFMU-IDPr to selectively report on ARH3 activity within the cellular milieu would be an important application of these probes. […] First, the hydrolysis of TFMU-IDPr was evaluated in cell lysate from a ARH3 knockout isogenic cell line pair derived from U2OS cells. […] Second, substrate processing was evaluated in the presence of the selective PARG inhibitor PDD00017273. […] Taken together, these experiments indicate that TFMU-IDPr is selectively cleaved by ARH3 in cell lysate, and TFMU-ADPr is cleaved only by ARH3 and PARG.
(§2) Cells were cultured in T75 flasks in appropriate medium. Cells were trypsinized, and scrapped (if necessary), and counted. 1×10^6 cells were harvested and washed with cold PBS 2×. Cell pellet was lysed by addition of activity lysis buffer (150 μL) and incubated on ice for 30 min. Lysate was clarified by centrifugation at 14,300×g at 4° C. for 10 min. Supernatant was transferred to chilled, empty 500 μL tube. Total protein content of lysate was evaluated by BCA assay. ARH3 expression level was determined by western blotting analysis. 5 μL lysate was added to well of 384-well black plate. 45 μL TFMU-IDPr (200 μM final) in reaction buffer was added to well. Reaction progress was monitored by fluorescent plate reader (ex 385 nm, cutoff 495, em 502 nm, 6 reads/well, high gain).

[5] = leaving groups pNP and TFMU; cited from earlier work
[6] = molecular target: T5, H. sapiens full length ARH3 (Homo sapiens, UniProt Q9NX46); test: In vitro enzyme kinetics of substrate hydrolysis
T5 sequence (Q9NX46 1-363): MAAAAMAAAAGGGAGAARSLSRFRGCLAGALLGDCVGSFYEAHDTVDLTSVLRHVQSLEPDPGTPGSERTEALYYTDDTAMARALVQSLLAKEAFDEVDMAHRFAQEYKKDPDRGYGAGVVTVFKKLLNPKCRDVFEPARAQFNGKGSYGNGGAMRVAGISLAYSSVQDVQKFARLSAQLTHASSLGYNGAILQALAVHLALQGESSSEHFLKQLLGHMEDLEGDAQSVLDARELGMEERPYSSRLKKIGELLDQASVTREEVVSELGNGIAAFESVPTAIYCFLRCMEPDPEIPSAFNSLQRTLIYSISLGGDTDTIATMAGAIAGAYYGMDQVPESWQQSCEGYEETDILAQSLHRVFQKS

ARH3 [7] = test: Cell lysate ARH3 activity assay (survey of cell lines, TFMU-IDPr hydrolysis); assay type: biochemical; details: MEF cell lysate, 200 μM TFMU-IDPr
Protocol: as §2, with “ARH3 expression level was determined by western blotting analysis. 5 μL lysate was added to well of 384-well black plate. 45 μL TFMU-IDPr (200 μM final) in reaction buffer was added to well.” left out

ARH3 [8] = molecular target: T2, ARH3; test: as above; assay type: biochemical; design: endogenous in cells; details: 200 μM TFMU-IDPr
Protocol: as §2, with “ARH3 expression level was determined by western blotting analysis. 5 μL lysate was added to well of 384-well black plate. 45 μL TFMU-IDPr (200 μM final) in reaction buffer was added to well.” left out

PARG [9] = molecular target: T1, PARG; test: Substrate hydrolysis in U2OS cell lysate in presence of PARG inhibitor PDD00017273; assay type: biochemical; design: endogenous in cells; host or cells: U2OS (parental and ARH3 knockout) lysate
Protocol: as §1, §2

[10] = substrate: O=c1[nH]cnc2c1ncn2[C@@H]1OC(COP(=O)(O)OP(=O)(O)OCC2OC(Oc3ccc([N+](=O)[O-])cc3)[C@H](O)[C@@H]2O)[C@@H](O)[C@H]1O; test: purified protein, by the assay type; details: other: hARH3
[11] = substrate: O=c1cc(C(F)(F)F)c2ccc(O[C@H]3O[C@H](COP(=O)(O)OP(=O)(O)OC[C@H]4O[C@@H](n5cnc6c(=O)[nH]cnc65)[C@H](O)[C@@H]4O)[C@@H](O)[C@H]3O)cc2o1; test: purified protein, by the assay type; details: other: hARH3

T1 sequence (Q86W56 whole entry, the tested form may be a part): as the sequence (Q86W56 whole entry, the tested form may be a part) above

## Nc1ncnc2c1ncn2[C@@H]1O[C@H](COP(=O)(O)OP(=O)(O)OC[C@H]2NC[C@H](O)[C@@H]2O)[C@@H](O)[C@H]1O [ADP-HPD]
PARG [1]
  inhibition of PARG: inhibits both PARG and ARH3

## N=C(NCCCC(N)C(=O)O)NC1OC(COP(=O)(O)OP(=O)(O)OCC2OC(n3cnc4c(N)ncnc43)C(O)C2O)C(O)C1O (stereo not shown) [ADPr-Arg, ADP-ribosyl arginine]
ARH3 [2]
  Ki: 18 ± 2 nM
PARG [1]
  inhibition of PARG: markedly reduced activity against PARG

## Nc1ncnc2c1ncn2[C@@H]1O[C@H](COP(=O)(O)OP(=O)(O)OC[C@H]2O[C@H](Oc3ccc4c(C(F)(F)F)cc(=O)oc4c3)[C@H](O)[C@@H]2O)[C@@H](O)[C@H]1O [TFMU-ADPr]
[3]
  Vmax: 0.84 ± 0.05 µmol/min/mg
T. thermophila PARG
  Vmax: 28.6 ± 0.6 µmol/min/mg
ARH3 [4]
  effect of ARH3 knockout on substrate hydrolysis: only partially decreased
[5]
  pKa of the leaving group: 7.26
[6]; hARH3
  Vmax: 1.61 ± 0.02 µmol/min/mg

## O=c1cc(C(F)(F)F)c2ccc(O[C@H]3O[C@H](COP(=O)(O)OP(=O)(O)OC[C@H]4O[C@@H](n5cnc6c(=O)[nH]cnc65)[C@H](O)[C@@H]4O)[C@@H](O)[C@H]3O)cc2o1 [TFMU-IDPr]
[3]
  Km: > 1500 µM
T. thermophila PARG
  Km: > 1500 µM
ARH3 [7]
  ARH3 Activity: 153 ± 38 milli-units/min/μg
ARH3 [4]
  effect of ARH3 knockout on substrate hydrolysis: near complete loss
ARH3 [8]; A549 cell lysate
  ARH3 Activity: 67 ± 23 milli-units/min/μg
ARH3 [8]; D54 cell lysate
  ARH3 Activity: 147 ± 34 milli-units/min/μg
ARH3 [8]; Daudi cell lysate
  ARH3 Activity: 27 ± 35 milli-units/min/μg
ARH3 [8]; HCC38 cell lysate
  ARH3 Activity: 100 ± 19 milli-units/min/μg
ARH3 [8]; HCC1937 cell lysate
  ARH3 Activity: 76 ± 4 milli-units/min/μg
ARH3 [8]; HCT-116 cell lysate
  ARH3 Activity: 173 ± 17 milli-units/min/μg
ARH3 [8]; HEK cell lysate
  ARH3 Activity: 192 ± 20 milli-units/min/μg
ARH3 [8]; HFF-1 cell lysate
  ARH3 Activity: 105 ± 20 milli-units/min/μg
ARH3 [8]; HeLa cell lysate
  ARH3 Activity: 159 ± 18 milli-units/min/μg
ARH3 [8]; HepG2 cell lysate
  ARH3 Activity: 215 ± 19 milli-units/min/μg
ARH3 [8]; Hs578t cell lysate
  ARH3 Activity: 170 ± 34 milli-units/min/μg
ARH3 [8]; Jurkat cell lysate
  ARH3 Activity: 36 ± 7 milli-units/min/μg
ARH3 [8]; MCF 7 cell lysate
  ARH3 Activity: 92 ± 40 milli-units/min/μg
ARH3 [8]; MCF10A cell lysate (grown with cholera toxin)
  ARH3 Activity: −5 ± 12 milli-units/min/μg
ARH3 [8]; MIA PaCa-2 cell lysate
  ARH3 Activity: 157 ± 25 milli-units/min/μg
ARH3 [8]; SK-MEL-5 cell lysate
  ARH3 Activity: 87 ± 13 milli-units/min/μg
ARH3 [8]; T98G cell lysate
  ARH3 Activity: 139 ± 7 milli-units/min/μg
ARH3 [8]; U87 cell lysate
  ARH3 Activity: 290 ± 52 milli-units/min/μg
ARH3 [8]; U937 cell lysate
  ARH3 Activity: 137 ± 34 milli-units/min/μg
[6]; human ARH3 over human PARG, FIG. 2C
  selectivity for processing by ARH3 over PARG: confirmed
PARG [9]; U2OS cell lysate, 200 μM TFMU-IDPr
  substrate hydrolysis in presence of PARG inhibitor PDD00017273: unaffected

## Nc1ncnc2c1ncn2[C@@H]1O[C@H](COP(=O)(O)OP(=O)(O)OC[C@H]2O[C@@H](Oc3ccc([N+](=O)[O-])cc3)[C@H](O)[C@@H]2O)[C@@H](O)[C@H]1O [pNP-ADPr]
T. thermophila PARG
  Km: 210 ± 10 µM
  Vmax: 16.9 ± 0.5 µmol/min/mg
T. thermophila PARG; FIG. 5C
  stereoselectivity of hydrolysis, α versus β anomer: selectively hydrolyzed the α anomer of pNP-ADPr over the β anomer
[5]
  pKa of the leaving group: 7.15
[6]; hARH3
  Km: 3.2 ± 0.6 µM
  Vmax: 1.7 ± 0.1 µmol/min/mg
[6]; hARH3, FIG. 5D
  stereoselectivity of hydrolysis, α versus β anomer: selectively hydrolyzed the α anomer of pNP-ADPr over the β anomer

## O=c1[nH]cnc2c1ncn2[C@@H]1OC(COP(=O)(O)OP(=O)(O)OCC2OC(Oc3ccc([N+](=O)[O-])cc3)[C@H](O)[C@@H]2O)[C@@H](O)[C@H]1O (stereo partly shown) [pNP-IDPr]
T. thermophila PARG
  Km: > 1500 µM

## PDD00017273 [reference compound]
PARG [9]; ARH3−/− U2OS cell lysate, 200 μM TFMU-ADPr
  inhibition of TFMU-ADPr hydrolysis: completely abolished

B1: H. sapiens full length ARH3 (Homo sapiens) (protein)
chain: MAAAAMAAAAGGGAGAARSLSRFRGCLAGALLGDCVGSFYEAHDTVDLTSVLRHVQSLEPDPGTPGSERTEALYYTDDTAMARALVQSLLAKEAFDEVDMAHRFAQEYKKDPDRGYGAGVVTVFKKLLNPKCRDVFEPARAQFNGKGSYGNGGAMRVAGISLAYSSVQDVQKFARLSAQLTHASSLGYNGAILQALAVHLALQGESSSEHFLKQLLGHMEDLEGDAQSVLDARELGMEERPYSSRLKKIGELLDQASVTREEVVSELGNGIAAFESVPTAIYCFLRCMEPDPEIPSAFNSLQRTLIYSISLGGDTDTIATMAGAIAGAYYGMDQVPESWQQSCEGYEETDILAQSLHRVFQKS
[10]
  Km: 410 ± 20 µM
  Vmax: 5.2 µmol/min/mg
[11]
  Km: 312 ± 30 µM
  Vmax: 1.79 µmol/min/mg
